Experimental data: PubChem BioAssay (NCI)
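Five concentrations, 48 hours, 96-well plates. Here, GI50 denotes the concentration required for 50% inhibition of growth. Definition used: TGI = concentration required for complete inhibition of growth.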

How the values were obtained:
Assay in all cases: growth of human tumour cells (NCI), 48 h
[1] = test system: SF-268 CNS
[2] = test system: DU-145 prostate
[3] = test system: OVCAR-5 ovarian
[4] = test system: BT-549 breast
[5] = test system: UO-31 renal
[6] = test system: 786-0 renal
[7] = test system: RXF 393 renal
[8] = test system: MOLT-4 leukemia
[9] = test system: TK-10 renal
[10] = test system: HOP-62 NSCLC
[11] = test system: CCRF-CEM leukemia
[12] = test system: RPMI-8226 leukemia
[13] = test system: HCC-2998 colon
[14] = test system: SW-620 colon
[15] = test system: SK-MEL-2 melanoma
[16] = test system: SK-OV-3 ovarian
[17] = test system: SR leukemia
[18] = test system: T-47D breast
[19] = test system: MCF7 breast
[20] = test system: NCI/ADR-RES ovarian
[21] = test system: SNB-19 CNS
[22] = test system: HOP-92 NSCLC
[23] = test system: CAKI-1 renal
[24] = test system: OVCAR-3 ovarian
[25] = test system: UACC-257 melanoma
[26] = test system: K-562 leukemia
[27] = test system: NCI-H522 lung
[28] = test system: SF-539 CNS
[29] = test system: MDA-MB-231 breast
[30] = test system: HL-60(TB) leukemia
[31] = test system: PC-3 prostate
[32] = test system: IGROV1 ovarian
[33] = test system: NCI-H226 lung
[34] = test system: U251 CNS
[35] = test system: A498 renal
[36] = test system: KM12 colon
[37] = test system: HT29 colon
[38] = test system: MALME-3M melanoma
[39] = test system: SK-MEL-28 melanoma
[40] = test system: A549 NSCLC
[41] = test system: UACC-62 melanoma
[42] = test system: COLO 205 colon
[43] = test system: SK-MEL-5 melanoma
[44] = test system: EKVX NSCLC
[45] = test system: MDA-MB-435
[46] = test system: NCI-H460 lung
[47] = test system: LOX IMVI melanoma
[48] = test system: OVCAR-4 ovarian
[49] = test system: SNB-75 CNS
[50] = test system: OVCAR-8 ovarian
[51] = test system: ACHN renal
[52] = test system: HCT-116 colon
[53] = test system: SF-295 CNS
[54] = test system: HS 578T breast
[55] = test system: SN12C renal
[56] = test system: M14 melanoma
[57] = test system: HCT-15 colon

CNC(=O)c1cc(-c2ccc(NC(=O)Nc3ccc(N4CCN(C)CC4)c(C(F)(F)F)c3)cc2)nc2cccnc12
GI50 [1]: 17.5 µM | TGI [1]: 39.2 µM | GI50 [2]: 17.6 µM | TGI [2]: 35.6 µM | GI50 [3]: 15.6 µM | TGI [3]: 29 µM | GI50 [4]: 16.5 µM | TGI [4]: 35.3 µM | GI50 [5]: 15.3 µM | TGI [5]: 29.2 µM | GI50 [6]: 1810 nM | TGI [6]: 3.52 µM | GI50 [7]: 3.38 µM | TGI [7]: 15 µM | GI50 [8]: 2790 nM | TGI [8]: 14.9 µM | GI50 [9]: 18.5 µM | TGI [9]: 33.3 µM | GI50 [10]: 16.4 µM | TGI [10]: 32.2 µM | GI50 [11]: 3.16 µM | TGI [11]: 74.2 µM | GI50 [12]: 3.85 µM | TGI [12]: 25 µM | GI50 [13]: 18 µM | TGI [13]: 34.6 µM | GI50 [14]: 2110 nM | TGI [14]: 4.62 µM | GI50 [15]: > 100 µM | TGI [15]: > 100 µM | GI50 [16]: 18.5 µM | TGI [16]: 34.7 µM | GI50 [17]: 9.97 µM | TGI [17]: 44.6 µM | GI50 [18]: 17 µM | TGI [18]: 43.4 µM | GI50 [19]: 1670 nM | TGI [19]: 3.45 µM | GI50 [20]: 14.2 µM | TGI [20]: 45.4 µM | GI50 [21]: 16.9 µM | TGI [21]: 33.2 µM | GI50 [22]: 6.54 µM | TGI [22]: > 100 µM | GI50 [23]: 16.1 µM | TGI [23]: 29.6 µM | GI50 [24]: 9.59 µM | TGI [24]: 25.8 µM | GI50 [25]: 15.3 µM | TGI [25]: 28.8 µM | GI50 [26]: 2120 nM | TGI [26]: 5.35 µM | GI50 [27]: 16.5 µM | TGI [27]: 31.1 µM | GI50 [28]: 13.6 µM | TGI [28]: 26.5 µM | GI50 [29]: 17.5 µM | TGI [29]: 38.1 µM | GI50 [30]: 16.1 µM | TGI [30]: 38.7 µM | GI50 [31]: 15.1 µM | TGI [31]: 30.1 µM | GI50 [32]: 17.7 µM | TGI [32]: 36.6 µM | GI50 [33]: 18 µM | TGI [33]: 39.7 µM | GI50 [34]: 3.43 µM | TGI [34]: 14.7 µM | GI50 [35]: > 100 µM | TGI [35]: > 100 µM | GI50 [36]: 17.4 µM | TGI [36]: 43.3 µM | GI50 [37]: 1920 nM | TGI [37]: 4.19 µM | GI50 [38]: 1680 nM | TGI [38]: 3.21 µM | GI50 [39]: 1670 nM | TGI [39]: 3.11 µM | GI50 [40]: 10.9 µM | TGI [40]: 24.3 µM | GI50 [41]: 18.4 µM | TGI [41]: 33.9 µM | GI50 [42]: 16.8 µM | TGI [42]: 32.8 µM | GI50 [43]: 17.5 µM | TGI [43]: 31.7 µM | GI50 [44]: 17.9 µM | TGI [44]: 33.9 µM | GI50 [45]: 1750 nM | TGI [45]: 3.27 µM | GI50 [46]: 3.19 µM | TGI [46]: 10.2 µM | GI50 [47]: 656 nM | TGI [47]: 24.5 µM | GI50 [48]: 15.7 µM | TGI [48]: 31.6 µM | GI50 [49]: 14.9 µM | TGI [49]: 28.4 µM | GI50 [50]: 17.4 µM | TGI [50]: 35.4 µM | GI50 [51]: 15.5 µM | TGI [51]: 28.9 µM | GI50 [52]: 4.09 µM | TGI [52]: 75.6 µM | GI50 [53]: 18 µM | TGI [53]: 36.9 µM | GI50 [54]: 15 µM | TGI [54]: 38.9 µM | GI50 [55]: 16.7 µM | TGI [55]: 34.7 µM | GI50 [56]: 1790 nM | TGI [56]: 3.71 µM | GI50 [57]: 2070 nM | TGI [57]: 4.33 µM
